{
  "source": "patent US8754259B2",
  "about": "“Synthesis of cyclohexane derivatives useful as sensates in consumer products” (The Proctor & Gamble Company, priority 2008, dated 2014)",
  "key": {"[1]": {"assay": "Sensory studies of coolant activity (G-180 and neoisomer vs menthol)", "assay_type": "in vivo, human", "settings": "for burning sensation: sensory evaluations by panelists", "protocol": "The coolant properties of the materials prepared according to the present methods are evaluated using sensory studies. […] By contrast, both the G-180 and neoisomer materials provided a sensation that lasted longer than about 15 minutes. The cooling potency of the neoisomer is particularly unexpected, since stereochemistry is a major factor influencing coolant activity and potency for menthol and menthol derivatives as reported in previous studies. [See for example, R. Emberger and R. Hopp (1987), Specialty Chemicals, 7(3), 193-201; R. Eccles (1990), Chemical Senses, 2, 275-291; S. Rovner (2007), Chemical & Engineering News, 85(39), 95-98]. […] The effect on activity of these isomers is far more significant than is observed with menthol.\nSensory evaluation studies of coolant activity may be conducted using a methodology patterned after the techniques described in M. C. Meilgaard, et al., Sensory Evaluation Techniques, 4th Ed. (2007). A panel of trained sensory experts evaluates cooling sensation experienced after using a product with coolant, for example by brushing with a dentifrice or rinsing with an aqueous rinse. In one protocol, panelists brush teeth with 1.5 grams of a test dentifrice (containing coolant) or control (no coolant) and then expectorate. After brush expectoration, panelists evaluate cooling intensity, assigning a number between 0 (no cooling) to 60 (intense cooling). In a rinse protocol, panelists rinse mouth with 15 ml. of an aqueous rinse and expectorate. After rinse expectoration, panelists evaluate cooling intensity according to the same 0 to 60 scale. Evaluations are conducted various time points, for example, at 5, 15, 30, 45, 60 minute, etc. At each evaluation, panelists are instructed to breathe in through pursed lips and evaluate overall cooling sensation. In this test, a numerical score of 7.5 indicates meaningful or definite cooling."}, "[2]": {"settings": "concentration where the cooling effect could be clearly recognized; cited from earlier work"}, "[3]": {"assay": "Cooling rating of test dentifrices relative to control dentifrice, panelists n=9", "assay_type": "in vivo, human", "settings": "for Cooling Rating Relative to Control: control = 60 on 1-90 scale; for cooling power compared to l-menthyl lactate: in words, dentifrice panel test, 60 minute period", "protocol": "The neo-coolants synthesized according to the routes outlined herein were tested to rate their cooling power compared with the corresponding l-isomers (commercially available samples) using the following protocol. Control and test coolants were formulated into a dentifrice at various levels according to the following formula.\nPanelists (n=9) were instructed to brush for 30 seconds with a control dentifrice (containing a mixture of coolants 1500 ppm l-WS-3, 3000 ppm Menthol, 3000 ppm MGA and 1000 ppm WS-23), expectorate, and assign the control dentifrice a cooling rating of 60 on a 1-90 scale. The panelists were then given the test dentifrices in random order and instructed to brush and rate each sample relative to the control over a 60-minute period. Cooling ratings relative to control are summarized below."}, "[4]": {"settings": "0 min, 500 ppm coolant in dentifrice"}, "[5]": {"settings": "15 min, 500 ppm coolant in dentifrice"}, "[6]": {"settings": "30 min, 500 ppm coolant in dentifrice"}, "[7]": {"settings": "45 min, 500 ppm coolant in dentifrice"}, "[8]": {"settings": "60 min, 500 ppm coolant in dentifrice"}, "[9]": {"settings": "0 min, 1500 ppm coolant in dentifrice"}, "[10]": {"settings": "15 min, 1500 ppm coolant in dentifrice"}, "[11]": {"settings": "30 min, 1500 ppm coolant in dentifrice"}, "[12]": {"settings": "45 min, 1500 ppm coolant in dentifrice"}, "[13]": {"settings": "60 min, 1500 ppm coolant in dentifrice"}},
  "data": [
    {"molecule": "CC(C)[C@@H]1CC[C@@H](C)C[C@H]1C(=O)Nc1ccc(CC#N)cc1", "note": "[G-180, N-[4-(cyanomethyl)phenyl]-(1R,2S,5R)-2-isopropyl-5-methylcyclohexanecarboxamide, reference compound]", "values": [
      {"measurement": "burning sensation", "setting": "[1]", "value": "“burning” sensation especially when used at fairly high levels"}
    ]},
    {"molecule": "CC(C)[C@@H]1CC[C@@H](C)C[C@H]1O", "note": "[L-menthol, l-menthol, reference compound]", "values": [
      {"measurement": "cooling threshold", "setting": "[2]", "value": "about 800 ppb"},
      {"measurement": "course of cooling sensation after use", "setting": "[1]; sensory studies", "value": "drops sharply within a few minutes after use"}
    ]},
    {"molecule": "CC(C)[C@@H]1CC[C@@H](C)C[C@@H]1C(=O)Nc1ccc(CC#N)cc1", "note": "[Neo-G-180, N-[4-(cyanomethyl)phenyl]-(1S,2S,5R)-2-isopropyl-5-methylcyclohexanecarboxamide]", "values": [
      {"measurement": "cooling properties", "setting": "[1]; in vivo", "value": "excellent cooling properties"},
      {"measurement": "burning sensation", "setting": "[1]", "value": "significantly less of the “burning” sensation"},
      {"measurement": "melting point", "value": "167 to 169", "unit": "°C"}
    ]},
    {"molecule": "CC1CCC(C(C)C)C(OC(=O)C(C)O)C1", "note": "[Neo-Menthyl lactate (2S)]", "values": [
      {"measurement": "Cooling Rating Relative to Control", "setting": "[3]; [4]", "value": 62.2},
      {"measurement": "Cooling Rating Relative to Control", "setting": "[3]; [5]", "value": 43.9},
      {"measurement": "Cooling Rating Relative to Control", "setting": "[3]; [6]", "value": 33.9},
      {"measurement": "Cooling Rating Relative to Control", "setting": "[3]; [7]", "value": 27.5},
      {"measurement": "Cooling Rating Relative to Control", "setting": "[3]; [8]", "value": 16.7},
      {"measurement": "cooling power compared to l-menthyl lactate", "setting": "[3]", "value": "very strong initial cooling as well as over the 60 minute time period"}
    ]},
    {"molecule": "CC(=O)O[C@@H](C)C(=O)O[C@H]1C[C@H](C)CC[C@H]1C(C)C", "note": "[Neo-Menthyl lactate acetate (2S), (1S,2S,5R)-2-isopropyl-5-methylcyclohexyl-2(S)-acetoxypropanoate]", "values": [
      {"measurement": "Cooling Rating Relative to Control", "setting": "[3]; 0 min, 335 ppm coolant in dentifrice", "value": 64.4},
      {"measurement": "Cooling Rating Relative to Control", "setting": "[3]; 15 min, 335 ppm coolant in dentifrice", "value": 46.3},
      {"measurement": "Cooling Rating Relative to Control", "setting": "[3]; 30 min, 335 ppm coolant in dentifrice", "value": 33.1},
      {"measurement": "Cooling Rating Relative to Control", "setting": "[3]; 45 min, 335 ppm coolant in dentifrice", "value": 26.3},
      {"measurement": "Cooling Rating Relative to Control", "setting": "[3]; 60 min, 335 ppm coolant in dentifrice", "value": 21.3},
      {"measurement": "cooling power compared to l-menthyl lactate", "setting": "[3]", "value": "very strong initial cooling as well as over the 60 minute time period"}
    ]},
    {"molecule": "CC(=O)C(=O)OC1CC(C)CCC1C(C)C", "note": "(stereo not shown) [Neo-Menthyl pyruvate]", "values": [
      {"measurement": "Cooling Rating Relative to Control", "setting": "[3]; 0 min, 1000 ppm coolant in dentifrice", "value": 57.8},
      {"measurement": "Cooling Rating Relative to Control", "setting": "[3]; 15 min, 1000 ppm coolant in dentifrice", "value": 45.0},
      {"measurement": "Cooling Rating Relative to Control", "setting": "[3]; 30 min, 1000 ppm coolant in dentifrice", "value": 30.6},
      {"measurement": "Cooling Rating Relative to Control", "setting": "[3]; 45 min, 1000 ppm coolant in dentifrice", "value": 21.1},
      {"measurement": "Cooling Rating Relative to Control", "setting": "[3]; 60 min, 1000 ppm coolant in dentifrice", "value": 16.1}
    ]},
    {"molecule": "CCNC(=O)[C@H]1C[C@H](C)CC[C@H]1C(C)C", "note": "[Neo-WS-3]", "values": [
      {"measurement": "Cooling Rating Relative to Control", "setting": "[3]; [9]", "value": 43.3},
      {"measurement": "Cooling Rating Relative to Control", "setting": "[3]; [10]", "value": 33.9},
      {"measurement": "Cooling Rating Relative to Control", "setting": "[3]; [11]", "value": 23.3},
      {"measurement": "Cooling Rating Relative to Control", "setting": "[3]; [12]", "value": 16.7},
      {"measurement": "Cooling Rating Relative to Control", "setting": "[3]; [13]", "value": 13.3}
    ]},
    {"molecule": "CCOC(=O)CNC(=O)[C@H]1C[C@H](C)CC[C@H]1C(C)C", "note": "[NeoWS-5]", "values": [
      {"measurement": "Cooling Rating Relative to Control", "setting": "[3]; [9]", "value": 61.9},
      {"measurement": "Cooling Rating Relative to Control", "setting": "[3]; [10]", "value": 39.3},
      {"measurement": "Cooling Rating Relative to Control", "setting": "[3]; [11]", "value": 29.3},
      {"measurement": "Cooling Rating Relative to Control", "setting": "[3]; [12]", "value": 21.4},
      {"measurement": "Cooling Rating Relative to Control", "setting": "[3]; [13]", "value": 15.7}
    ]},
    {"molecule": "CC(C)[C@@H]1CC[C@@H](C)C[C@@H]1O", "note": "[d-neomenthol]", "values": [
      {"measurement": "cooling threshold", "setting": "[2]", "value": "about 25,000 ppb"}
    ]},
    {"molecule": "CC(C)[C@@H]1CC[C@@H](C)C[C@H]1OC(=O)[C@H](C)O", "note": "[l-Menthyl lactate (2S), reference compound]", "values": [
      {"measurement": "Cooling Rating Relative to Control", "setting": "[3]; [4]", "value": 50.0},
      {"measurement": "Cooling Rating Relative to Control", "setting": "[3]; [5]", "value": 38.0},
      {"measurement": "Cooling Rating Relative to Control", "setting": "[3]; [6]", "value": 26.5},
      {"measurement": "Cooling Rating Relative to Control", "setting": "[3]; [7]", "value": 18.5},
      {"measurement": "Cooling Rating Relative to Control", "setting": "[3]; [8]", "value": 13.5}
    ]},
    {"molecule": "CCNC(=O)C1CC(C)CCC1C(C)C", "note": "(stereo not drawn) [l-WS-3, N-ethyl-ρ-menthan-3-carboxamide, reference compound]", "values": [
      {"measurement": "Cooling Rating Relative to Control", "setting": "[3]; [9]", "value": 53.5},
      {"measurement": "Cooling Rating Relative to Control", "setting": "[3]; [10]", "value": 36.5},
      {"measurement": "Cooling Rating Relative to Control", "setting": "[3]; [11]", "value": 27.0},
      {"measurement": "Cooling Rating Relative to Control", "setting": "[3]; [12]", "value": 20.5},
      {"measurement": "Cooling Rating Relative to Control", "setting": "[3]; [13]", "value": 15.5}
    ]},
    {"molecule": "CCOC(=O)CNC(=O)C1CC(C)CCC1C(C)C", "note": "(stereo not drawn) [l-WS-5, N-ethoxycarbonylmethyl-ρ-menthan-3-carboxamide, reference compound]", "values": [
      {"measurement": "Cooling Rating Relative to Control", "setting": "[3]; [9]", "value": 53.9},
      {"measurement": "Cooling Rating Relative to Control", "setting": "[3]; [10]", "value": 40.0},
      {"measurement": "Cooling Rating Relative to Control", "setting": "[3]; [11]", "value": 26.7},
      {"measurement": "Cooling Rating Relative to Control", "setting": "[3]; [12]", "value": 17.8},
      {"measurement": "Cooling Rating Relative to Control", "setting": "[3]; [13]", "value": 13.3}
    ]},
    {"molecule": "CC(C)[C@H]1CC[C@H](C)C[C@H]1O", "note": "[l-neomenthol]", "values": [
      {"measurement": "cooling threshold", "setting": "[2]", "value": "about 3,000 ppb"}
    ]},
    {"molecule": "Neo-Menthyl lactate [Neo-Menthyl lactate (~2:1 S:R)]", "values": [
      {"measurement": "Cooling Rating Relative to Control", "setting": "[3]; 0 min, 1950 ppm coolant in dentifrice", "value": 50.6},
      {"measurement": "Cooling Rating Relative to Control", "setting": "[3]; 15 min, 1950 ppm coolant in dentifrice", "value": 42.8},
      {"measurement": "Cooling Rating Relative to Control", "setting": "[3]; 30 min, 1950 ppm coolant in dentifrice", "value": 30.6},
      {"measurement": "Cooling Rating Relative to Control", "setting": "[3]; 45 min, 1950 ppm coolant in dentifrice", "value": 22.2},
      {"measurement": "Cooling Rating Relative to Control", "setting": "[3]; 60 min, 1950 ppm coolant in dentifrice", "value": 16.7}
    ]}
  ]
}
